Assay results: ChEMBL document CHEMBL3301361, “Experimental in vitro DMPK and physicochemical data on a set of publicly disclosed compounds”

Experiment: physchem
Settings: octan-1-ol/water, pH 7.4

SMILES | logD
CN(C)CC/C=C1\c2ccccc2Sc2ccc(Cl)cc21 | 3.42
CN1CCN(C(=O)c2ccc(C(=C3CCN(Cc4cscn4)CC3)c3cccc4cccnc34)cc2)CC1 | 1.98
CNC(=O)c1ccc(Oc2ccc(C#C[C@]3(O)CN4CCC3CC4)cc2)cc1 | 1.99
CCN(CC)C(=O)c1ccc(C(=C2CCNCC2)c2ccccc2OC)cc1 | 1
COc1ccc2c3c1OC1C(O)C=CC4C(C2)N(C)CCC341 (stereo not drawn) | 0.8
CCOC(=O)C1(c2cccc(O)c2)CCCN(CC2CC2)C1 (stereo not drawn) | 1.89
CC12NC(Cc3ccccc31)c1ccccc12 (stereo not drawn) | 1.7
NC(=O)c1cccc(O[C@@H]2C[C@H]3CC[C@@H](C2)N3CCc2ccccc2)c1 | 2
O=C(c1ccc(C(=C2CCN(Cc3cscn3)CC2)c2cccc3cccnc23)cc1)N1CCCC1 | 2.75
CCN(CC)C(=O)c1ccc([C@H](c2cccc(NC(=O)C3CC3)c2)N2CCN(CCOC)CC2)cc1 | 2.35
CCOC(=O)Nc1cccc([C@@H](c2ccc(C(=O)N3CCC3)cc2)N2CCN(Cc3cccnc3)CC2)c1 | 3.02
Cc1cc(O[C@H]2C[C@H]3CC[C@@H](C2)N3Cc2ccccc2)cc(C(N)=O)c1 | 2.08
C[C@@H]1NC(C)(C)CO[C@@]1(O)c1cccc(Cl)c1 [RADAFAXINE] | 1.69
O=C(N[C@@H]1CN2CCC1CC2)c1ccc(-c2ccccc2)s1 | 1.77
COc1ccc(C(CN2CCCC2)N(C)C(=O)Cc2ccc(Cl)c(Cl)c2)c(OC)c1 (stereo not drawn) | 3.07
COc1cc(F)ccc1-c1cncc(C2CCCN2)c1 (stereo not drawn) | 1.1
CCC[C@@H](CN1CCCC1)N(C)C(=O)Cc1ccc(Cl)c(Cl)c1 | 2.27

Same assay, conditions: octan-1-ol/water, pH 7.4, LogD7.4

SMILES | logD
Oc1ccc(-c2ccc3cc(O)ccc3n2)cc1 | 3.1
CC(C)c1ccccc1Cc1cc(C(=O)Nc2ccc(S(=O)(=O)c3ccccc3C(C)(C)C)cc2)c(O)c(O)c1O | 3.44
CNC1(C)C2CCC(C2)C1(C)C (stereo not drawn) [MECAMYLAMINE] | -0.84
COc1cc2ncnc(Nc3ccncc3)c2cc1OC | 2.22
CC(C)C(NC(=O)Cn1c(-c2ccccc2)ccc(NC(=O)OCc2ccc(C(=O)O)cc2)c1=O)C(=O)C(F)(F)F (stereo not drawn) | 0.84
NC(=O)Nc1sc(-c2cc(F)cc(F)c2)cc1C(=O)N[C@H]1CCCNC1 | 2.18
O=C(C(=O)c1cc(Br)ccc1O)c1cc(Br)ccc1O | 3.85
O=[N+]([O-])c1cccc2ccc(C(Cl)(Cl)Cl)nc12 | 3.7
Cc1noc(C)c1CCC1CCN(S(=O)(=O)CC2(N(O)C=O)CCC(F)(F)CC2)CC1 | 2.1
O=C1NC(c2ccc(Br)cc2)Nc2ccccc21 (stereo not drawn) | 2.68
C#CCN(c1cc(Nc2ccc(OCC(O)CN(C)C)cc2)ncn1)c1cc(Cl)ccc1Cl (stereo not drawn) | 2.8
COc1cc(N2CCCN(C)CC2)c2[nH]c(C(=O)Nc3ccc(N4CCOCC4)cc3)cc(=O)c2c1 | 2.1
CC(C)CC(c1ccccn1)n1[nH]c(=O)c2nc3cc(Cl)ccc3c(O)c2c1=O (stereo not drawn) | 1.83
Cn1sc(NC(=O)c2cccc(Cl)c2)nc1=O | 0.87
CC(C)Cn1c(=O)n(C)c(=O)c2c(C(=O)N3CC(C)(O)C3)c(Cc3ccccc3C(F)(F)F)sc21 | 3.18
CC(C)N1CCN[C@@H](CN2CCN(C(=O)Nc3ccc(Cl)c(Cl)c3)CC2)C1 | 1.92
Cc1cc(Cl)ccc1N1CCN(C(=O)COCc2ccncc2)CC1 | 3.22
CCCc1c(OCCCSc2ccc(CC(=O)O)cc2Cl)ccc(C(=O)CC)c1O | 3.57
CCCN(CCC)C(=O)c1cccc(C(=O)N[C@@H](Cc2ccccc2)[C@H](O)CNCc2cccc(OC)c2)c1 | 2.7
NCC(O)(c1ccccc1)c1ccccc1 | 0.9
OCCn1cc(-c2cnc3nnn(Cc4ccc5ncccc5c4)c3n2)cn1 [PF-04217903] | 1.7
O=c1c2cnn(-c3ccccc3)c2nc(-c2ccco2)n1-c1ccccc1 | 3.29
CC[C@H](NC(=O)c1c(CS(C)(=O)=O)c(-c2ccccc2)nc2ccccc12)c1ccccc1 | 3.25

SMILES | logD
COC(=O)N1CCOc2cc(COc3ccccc3)cnc21 | 2.5
Nc1cc(-c2ccccc2)nc2ccccc12 | 2.2
COc1ccc(-c2nc3c(NCC4CCNCC4)c(Br)cnc3[nH]2)cc1 | 1.36
Cc1cc2n[nH]c(=O)n2c2cc(-c3cccc(CO)c3)ccc12 | 3.36
N=C(N)NC(=O)c1nc(Cl)c(NCc2ccccn2)nc1N | -0.56
O=c1[nH]n(Cc2ccncc2)c(=O)c2c(=O)c3ccc(Cl)cc3[nH]c12 | -0.16
CCN(CCCOCCOCCc1ccccc1)CCc1ccc(O)c2nc(O)sc12 | 2.45
COc1cc2ncnc(Nc3ccc(F)cc3)c2cc1OC | 3.1
CC(C)C(NC(=O)Cn1c(-c2cccs2)ncc(NC(=O)OCc2ccccc2)c1=O)C(=O)C(F)(F)F (stereo not drawn) | 2.02
O=C(c1ccc(OCCCc2cnc[nH]2)cc1)C1CC1 [CIPROXIFAN] | 2.68
N[C@H](CNC(=O)c1cc2c(-c3ccccc3Cc3ccccc3)cccc2[nH]1)C(=O)O | 3.25
CC(C)(C)c1cc(O)n2nc(N)nc2n1 | -0.2
Oc1ccc(-c2nc3ccc(O)cc3o2)cc1 | 3.3
Cc1nc(C)c(-c2ccc([C@H]3CC[C@H](CC(=O)O)CC3)c(F)c2)nc1C(N)=O | 1.3
O=C(O)CSc1c[nH]c2ccccc12 | -1.31
O=c1[nH]c2c(O)ccc([C@@H](O)CNCCc3ccc(CNCCc4c(Cl)cccc4Cl)cc3)c2s1 | 2.3
Clc1ccccc1CN1CCc2sccc2C1 [TICLOPIDINE] | 3.46
CC(C)C(NC(=O)Cn1c(-c2ccccc2)ccc(NC(=O)NCc2ccccn2)c1=O)C(=O)C(F)(F)F (stereo not drawn) | 2.15
COCCNC(=O)c1ccc(Nc2ncc3cc(-c4ccnc(C)c4)ccc3n2)cc1 | 3.56
Oc1cc(-c2ccccc2)nc2ncnn12 | -0.21
O=C(c1cccc(Cc2n[nH]c(=O)c3ccccc23)c1)N1CCN(c2ccccn2)CC1 | 2.36
C[C@@H]1CN(C(=O)[C@@](C)(O)C(F)(F)F)[C@@H](C)CN1C(=O)c1ccc(C#N)cc1 | 1.5
COCCC(=O)NC(C)c1ccc(Nc2ncc3cc(-c4ccncc4)ccc3n2)cc1 (stereo not drawn) | 2.98

SMILES | logD
COc1cc2ncnc(NCc3cccc(C)c3)c2cc1OC | 3.5
COC[C@H](C)Oc1cc(Oc2ccc(S(C)(=O)=O)cc2)cc(C(=O)Nc2ccc(C(=O)O)cn2)c1 | -0.41
COc1ccc(COc2ccc(Cc3cnc(N)nc3N)cc2OC)cc1 [GW632580X] | 2.27
N#Cc1ccc(S(=O)(=O)NCC(c2ccccc2)N2CCCCCC2)cc1 (stereo not drawn) | 2.86
OCC[C@]1(c2ccc(Cl)c(Cl)c2)CCCNC1 | 0.61
Cc1ccc(Cl)c(Nc2cc(Nc3ccc(OCC(O)CN(C)C)cc3)ncn2)c1 (stereo not drawn) | 2.16
Nc1ncnc2ccccc12 [4-AMINOQUINAZOLINE] | 1.26
COc1ccccc1-c1nnc(N)[nH]1 | 0.91
CCOC(=O)c1ccc(OC(=O)CCCCCNC(=N)N)cc1 [GABEXATE] | 2.41
CCN(C(=O)Cc1ccc(S(=O)(=O)N(C)C)cc1)C1CCN(CCC(c2ccccc2)c2ccccc2)CC1 | 3.7
COc1cc2ncnc(N3CC[C@@H](Oc4cnc5ccccc5n4)C3)c2cc1OC | 4.04
C[C@H]1O[C@@H](n2cnc3c(N)nc(OCC45CC6CC(CC(C6)C4)C5)nc32)[C@H](O)[C@@H]1O | 3.58
COC(=O)CCCC(=O)Nc1ccc2c(c1)-c1ccccc1C(=O)C2=O | 2.96
O=C(Nc1ccc(Cl)c(Cl)c1)N1CCN(C[C@@H]2CCCN(CC3CC3)C2)CC1 | 2.54
CN1C(=O)CC(c2ccccc2)C1=O (stereo not drawn) [PHENSUXIMIDE] | 0.68
CC[C@H](NC(=O)c1c(CC[S+](C)[O-])c(-c2ccccc2)nc2ccccc12)c1ccccc1 (stereo partly drawn) | 3.15
CS(=O)(=O)c1ccccc1C(=O)NC[C@@H](O)CN1CCC(Oc2ccc(Cl)c(Cl)c2)CC1 | 2.34
O=c1c(O)cccc2cc(O)c(O)c(O)c12 [PURPUROGALLIN] | 2.03
COc1cccc(C(=O)NCCCOc2cccc3ccc(N)nc23)c1 | 2.46
Nc1cccc(C(=O)NCC23CC4CC(CC(C4)C2)C3)c1Cl | 3.29
CNC(=O)c1ccc(-c2cc(C(=O)N[C@H]3CCCNC3)c(NC(N)=O)s2)cc1 | 0.7
Clc1ccc2[nH]ccc2c1 | 3.28
CC[C@H](NC(=O)c1c([S+]([O-])C(C)C)c(-c2ccccc2)nc2ccccc12)c1ccccc1 (stereo partly drawn) | 3.81

SMILES | logD
Cc1cc2cc3c(C)cc(=O)oc3c(C)c2o1 [TRIOXSALEN] | 3.47
NC(N)=Nc1nc(CSCCC(N)=NS(N)(=O)=O)cs1 [FAMOTIDINE] | -0.6
CCN(C(=O)Cc1ccc(S(C)(=O)=O)cc1)C1CCN(CCC(c2ccccc2)c2ccc(C#N)cc2)CC1 (stereo not drawn) | 2.76
CN1CCN(c2ccc(Nc3ccnc4ccccc34)cc2)CC1 | 1.3
O=C(Nc1ccc(Cl)c(Cl)c1)N1CCN(C[C@H]2CN(C3CC3)CCO2)CC1 | 3.32
Clc1ccccc1CNC[C@H]1CC[C@H](CNCc2ccccc2Cl)CC1 | 2.74
COc1ccc2c(C)nc(=O)n(CCN3CCC(NCc4cc5c(cn4)OCCO5)CC3)c2c1 | 0.29
CC(C)c1nnc2ccc(-c3ocnc3-c3cc(F)ccc3F)cn12 | 2.44
N=C(N)SCc1ccc(Cl)c(Cl)c1 | 1.28
Cn1sc(NC(=O)c2ccccc2)nc1=O | 1.13
CC(C)NCC(O)COc1nccs1 (stereo not drawn) [TAZOLOL] | -0.97
COC(=O)[C@@H]1[C@H]2C[C@H]3c4[nH]c5ccccc5c4CCN3C[C@@H]2CC[C@@H]1O [YOHIMBINE] | 1.65
CN1CCN(CC(=O)Nc2c(C#N)cnn2-c2ccccc2)CC1 | 0
CC(=O)Nc1nc(N)n(-c2ccccc2)n1 | -0.2
Nc1cc2n[nH]c(=O)n2c2cc(-c3ccsc3)ccc12 | 3.18
O=S(=O)(Nc1cccnc1)c1cccs1 | 0.54
CSc1nc2cc(Cl)ccc2[nH]1 | 3.22
Cn1cc(C#N)cc1-c1c2c(=O)n(CC#N)c(=O)n(CC3CC3)c2nn1Cc1ccnc2ccc(Cl)cc12 | 3.33
C[C@@H](O)[C@@H](CO)Nc1nc(SCc2cccc(F)c2F)nc2nc(N)sc12 | 2.83
CC(NC(=O)C1(N)CCN(c2ncnc3[nH]ccc23)CC1)c1ccc(Cl)cc1 (stereo not drawn) | 2.7
O=C(Oc1ccccc1O)c1cccc2ccccc12 | 4.4
CNCc1cccc(-c2ccc3c(N4CCOCC4)nc(N4C[C@@H](C)O[C@@H](C)C4)nc3n2)c1 | 1.26
